Measured values reported in patent publication US8329687B2, “Pyridooxazepine derivative and use thereof” (Takeda Pharmaceutical Company Limited, priority 2007, dated 2012).
Counter-ions that a name gives are not always drawn.

molecular target: serotonin 5-HT2C receptor (VSV type isoform) stably expressed in CHO cell (Homo sapiens, UniProt P28335, I156V/I160V/N158S); assay: cell-based; format: cell-based; conditions: 1 μM
Sequence (P28335 33-458 I156V/N158S/I160V limits assumed): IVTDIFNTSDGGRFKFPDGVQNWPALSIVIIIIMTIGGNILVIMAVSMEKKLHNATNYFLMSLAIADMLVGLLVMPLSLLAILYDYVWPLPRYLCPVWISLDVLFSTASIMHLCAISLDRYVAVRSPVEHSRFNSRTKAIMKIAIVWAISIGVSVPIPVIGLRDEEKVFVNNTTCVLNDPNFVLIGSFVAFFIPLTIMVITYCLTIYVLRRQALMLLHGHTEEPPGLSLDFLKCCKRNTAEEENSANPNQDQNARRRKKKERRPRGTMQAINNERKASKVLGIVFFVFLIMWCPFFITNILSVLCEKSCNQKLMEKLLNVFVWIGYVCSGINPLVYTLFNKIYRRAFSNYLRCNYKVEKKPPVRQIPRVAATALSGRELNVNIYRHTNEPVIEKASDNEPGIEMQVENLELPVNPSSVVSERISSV

SMILES	ratio relative to maximum response by 5-HT (1 μM)
CC(Oc1ccc2c(n1)OCCNC2)C1CC1.CC(Oc1ccc2c(n1)OCCNC2)C1CC1.O=C(O)CCC(=O)O (single isomer, unassigned; (+)) [Example 36, (+)-8-(1-cyclopropylethoxy)-2,3,4,5-tetrahydropyrido[3,2-f][1,4]oxazepine 0.5 succinate]	104.7
CC(Oc1ccc2c(n1)OCCNC2)C1CC1.CC(Oc1ccc2c(n1)OCCNC2)C1CC1.O=C(O)CCC(=O)O (single isomer, unassigned; (-)) [Example 35, (−)-8-(1-cyclopropylethoxy)-2,3,4,5-tetrahydropyrido[3,2-f][1,4]oxazepine 0.5 succinate]	93.7
CC(C)Oc1ccc2c(n1)OCCNC2.CC(C)Oc1ccc2c(n1)OCCNC2.O=C(O)CCC(=O)O [Example 5, 8-isopropoxy-2,3,4,5-tetrahydropyrido[3,2-f][1,4]oxazepine 0.5 succinate]	97.7
CC(Oc1ccc2c(n1)OCCNC2)C1CC1.CC(Oc1ccc2c(n1)OCCNC2)C1CC1.O=C(O)CCC(=O)O (centres unmarked) [Example 16, 8-(1-cyclopropylethoxy)-2,3,4,5-tetrahydropyrido[3,2-f][1,4]oxazepine 0.5 succinate]	98.8

same assay, conditions: CHO; read-out: ratio relative to maximum response by 5-HT (1 μM)

SMILES	Emax [%]
CC(C)(C)Oc1ccc2c(n1)OCCNC2 [Example 1, 8-tert-butoxy-2,3,4,5-tetrahydropyrido[3,2-f][1,4]oxazepine]	98.6
CC(C)COc1ccc2c(n1)OCCNC2 [Example 3, 8-isobutoxy-2,3,4,5-tetrahydropyrido[3,2-f][1,4]oxazepine hydrochloride]	101
CCOc1ccc2c(n1)OCCNC2 [Example 13, 8-ethoxy-2,3,4,5-tetrahydropyrido[3,2-f][1,4]oxazepine hydrochloride]	97.4
FC1(F)CCC(Oc2ccc3c(n2)OCCNC3)CC1 [Example 23, 8-[(4,4-difluorocyclohexyl)oxy]-2,3,4,5-tetrahydropyrido[3,2-f][1,4]oxazepine hydrochloride]	83.8
CC(C)[C@H](C)Oc1ccc2c(n1)OCCNC2 [Example 24, 8-{[(1S)-1,2-dimethylpropyl]oxy}-2,3,4,5-tetrahydropyrido[3,2-f][1,4]oxazepine hydrochloride]	94.7
CC(C)[C@@H](C)Oc1ccc2c(n1)OCCNC2 [Example 25, 8-{[(1R)-1,2-dimethylpropyl]oxy}-2,3,4,5-tetrahydropyrido[3,2-f][1,4]oxazepine hydrochloride]	98.6
CC[C@H](C)Oc1ccc2c(n1)OCCNC2 [Example 26, 8-{[(1S)-1-methylpropyl]oxy}-2,3,4,5-tetrahydropyrido[3,2-f][1,4]oxazepine hydrochloride]	97.6
CC[C@@H](C)Oc1ccc2c(n1)OCCNC2 [Example 27, 8-{[(1R)-1-methylpropyl]oxy}-2,3,4,5-tetrahydropyrido[3,2-f][1,4]oxazepine hydrochloride]	99.8
c1ccc(Oc2ccc3c(n2)OCCNC3)cc1 [Example 28, 8-phenoxy-2,3,4,5-tetrahydropyrido[3,2-f][1,4]oxazepine hydrochloride]	91.2
CC(C)Sc1ccc2c(n1)OCCNC2 [Example 37, 8-(isopropylthio)-2,3,4,5-tetrahydropyrido[3,2-f][1,4]oxazepine hydrochloride]	94.5
